In PMC5651568, “Comparative characterization of all cellulosomal cellulases from Clostridium thermocellum reveals high diversity in endoglucanase product formation essential for complex activity” (Biotechnology for Biofuels, 2017):

Legend:
Test in all cases: TLC product analysis
Assay type in all cases: biochemical
Conditions in all cases: 60 °C, MOPS buffer, 10 mM CaCl2
Cel9-44J = molecular target: T1, Cel9-44J (Acetivibrio thermocellus, UniProt A3DD30)
T1 construct: gene Cthe_0624; signal peptide removed, GH9 and GH44 modules, dockerin kept, His-tag, codon-optimised synthetic gene, E. coli BL21

Cel5-26H = molecular target: T2, Cel5-26H (Acetivibrio thermocellus, UniProt P16218)
T2 construct: gene celH; signal peptide removed, GH5 and GH26 modules, dockerin kept, His-tag, E. coli BL21
T2 sequence (P16218 45-900): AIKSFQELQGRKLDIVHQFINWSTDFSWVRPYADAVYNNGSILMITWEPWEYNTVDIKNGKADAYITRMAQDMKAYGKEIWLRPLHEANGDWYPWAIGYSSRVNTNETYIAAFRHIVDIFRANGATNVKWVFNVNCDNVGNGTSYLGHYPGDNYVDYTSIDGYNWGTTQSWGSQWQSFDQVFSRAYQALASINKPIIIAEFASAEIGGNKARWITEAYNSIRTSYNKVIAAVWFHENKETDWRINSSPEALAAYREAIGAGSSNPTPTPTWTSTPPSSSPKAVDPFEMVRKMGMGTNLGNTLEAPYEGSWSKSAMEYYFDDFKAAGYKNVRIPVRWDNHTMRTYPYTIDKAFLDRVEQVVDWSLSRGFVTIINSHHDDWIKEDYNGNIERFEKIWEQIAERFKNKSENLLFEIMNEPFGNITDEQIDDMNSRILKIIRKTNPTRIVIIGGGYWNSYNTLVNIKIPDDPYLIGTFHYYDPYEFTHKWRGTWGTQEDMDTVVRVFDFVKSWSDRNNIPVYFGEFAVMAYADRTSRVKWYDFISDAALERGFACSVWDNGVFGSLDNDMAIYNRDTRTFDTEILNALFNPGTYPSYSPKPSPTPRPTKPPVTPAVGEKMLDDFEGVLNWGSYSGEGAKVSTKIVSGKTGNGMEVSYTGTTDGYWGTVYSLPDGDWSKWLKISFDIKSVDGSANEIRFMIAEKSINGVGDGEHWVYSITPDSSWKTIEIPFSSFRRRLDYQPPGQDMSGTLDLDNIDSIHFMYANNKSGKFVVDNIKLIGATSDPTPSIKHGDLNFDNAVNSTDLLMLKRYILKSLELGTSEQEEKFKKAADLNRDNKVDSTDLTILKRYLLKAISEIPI

Cbh9A = molecular target: T3, Cbh9A (Acetivibrio thermocellus, UniProt A3DCH2)
T3 construct: gene Cthe_0413; signal peptide removed, dockerin kept, His-tag, E. coli BL21
T3 sequence (A3DCH2 28-1224): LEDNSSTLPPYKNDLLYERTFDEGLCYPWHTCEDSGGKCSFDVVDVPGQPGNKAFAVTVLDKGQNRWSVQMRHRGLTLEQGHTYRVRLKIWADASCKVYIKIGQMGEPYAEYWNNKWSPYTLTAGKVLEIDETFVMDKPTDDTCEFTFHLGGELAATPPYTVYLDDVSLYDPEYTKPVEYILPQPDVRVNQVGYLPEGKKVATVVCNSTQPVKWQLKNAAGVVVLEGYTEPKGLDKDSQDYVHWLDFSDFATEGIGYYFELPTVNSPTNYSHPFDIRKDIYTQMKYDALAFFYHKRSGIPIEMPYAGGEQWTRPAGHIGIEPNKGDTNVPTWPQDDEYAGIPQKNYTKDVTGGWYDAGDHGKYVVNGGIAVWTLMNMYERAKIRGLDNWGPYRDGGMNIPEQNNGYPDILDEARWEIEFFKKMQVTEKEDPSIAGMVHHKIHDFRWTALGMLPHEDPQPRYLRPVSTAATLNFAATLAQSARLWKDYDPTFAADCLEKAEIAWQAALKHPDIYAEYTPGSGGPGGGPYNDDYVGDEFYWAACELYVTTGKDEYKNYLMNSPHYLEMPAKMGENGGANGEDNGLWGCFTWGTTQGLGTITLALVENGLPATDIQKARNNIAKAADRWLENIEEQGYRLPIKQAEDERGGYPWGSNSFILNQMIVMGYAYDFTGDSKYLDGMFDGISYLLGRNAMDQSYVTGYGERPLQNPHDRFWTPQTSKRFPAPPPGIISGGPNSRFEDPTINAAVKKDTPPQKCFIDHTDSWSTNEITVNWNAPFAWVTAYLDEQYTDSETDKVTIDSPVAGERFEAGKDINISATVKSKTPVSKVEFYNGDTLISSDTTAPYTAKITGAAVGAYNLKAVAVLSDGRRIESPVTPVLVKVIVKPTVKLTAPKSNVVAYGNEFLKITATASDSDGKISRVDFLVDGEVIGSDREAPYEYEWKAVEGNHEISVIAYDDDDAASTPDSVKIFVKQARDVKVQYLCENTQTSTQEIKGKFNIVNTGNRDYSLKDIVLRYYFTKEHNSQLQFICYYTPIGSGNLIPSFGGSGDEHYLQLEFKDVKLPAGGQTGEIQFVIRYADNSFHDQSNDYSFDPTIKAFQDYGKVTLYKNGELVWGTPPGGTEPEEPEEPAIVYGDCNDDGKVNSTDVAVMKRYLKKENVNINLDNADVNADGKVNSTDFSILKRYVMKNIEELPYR

Cel9K = molecular target: T4, Cel9K (Acetivibrio thermocellus, UniProt A3DCH1)
T4 construct: gene celK; signal peptide removed, dockerin kept, His-tag, codon-optimised synthetic gene, E. coli BL21
T4 sequence (A3DCH1 28-895): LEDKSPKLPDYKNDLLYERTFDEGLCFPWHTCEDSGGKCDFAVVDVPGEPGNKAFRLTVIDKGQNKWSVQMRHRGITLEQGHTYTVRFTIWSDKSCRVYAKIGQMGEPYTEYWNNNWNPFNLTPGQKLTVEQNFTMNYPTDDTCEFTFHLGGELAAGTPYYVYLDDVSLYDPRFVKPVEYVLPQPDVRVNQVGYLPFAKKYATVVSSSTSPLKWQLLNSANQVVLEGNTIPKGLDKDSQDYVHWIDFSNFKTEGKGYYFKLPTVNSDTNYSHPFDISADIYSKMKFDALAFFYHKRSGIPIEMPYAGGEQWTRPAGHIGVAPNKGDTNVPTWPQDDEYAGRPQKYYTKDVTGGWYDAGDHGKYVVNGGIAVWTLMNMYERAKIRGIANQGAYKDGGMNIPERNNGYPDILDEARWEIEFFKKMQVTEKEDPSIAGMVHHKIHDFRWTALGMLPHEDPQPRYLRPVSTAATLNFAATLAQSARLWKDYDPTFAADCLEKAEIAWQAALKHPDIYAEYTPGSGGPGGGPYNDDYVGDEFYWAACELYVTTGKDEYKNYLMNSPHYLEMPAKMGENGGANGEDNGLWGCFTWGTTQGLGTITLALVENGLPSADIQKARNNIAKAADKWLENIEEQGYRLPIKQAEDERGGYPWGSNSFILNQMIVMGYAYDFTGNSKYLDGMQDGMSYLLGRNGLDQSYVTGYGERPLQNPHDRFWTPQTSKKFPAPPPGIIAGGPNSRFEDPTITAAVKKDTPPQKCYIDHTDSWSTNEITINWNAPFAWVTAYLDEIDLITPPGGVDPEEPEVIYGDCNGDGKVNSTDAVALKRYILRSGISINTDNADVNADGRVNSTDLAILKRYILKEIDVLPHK

Cel9D = molecular target: T5, Cel9D (Acetivibrio thermocellus, UniProt A3DDN1)
T5 construct: gene celD; signal peptide removed, Ig-like module and dockerin kept, His-tag, E. coli BL21
T5 sequence (A3DDN1 42-649): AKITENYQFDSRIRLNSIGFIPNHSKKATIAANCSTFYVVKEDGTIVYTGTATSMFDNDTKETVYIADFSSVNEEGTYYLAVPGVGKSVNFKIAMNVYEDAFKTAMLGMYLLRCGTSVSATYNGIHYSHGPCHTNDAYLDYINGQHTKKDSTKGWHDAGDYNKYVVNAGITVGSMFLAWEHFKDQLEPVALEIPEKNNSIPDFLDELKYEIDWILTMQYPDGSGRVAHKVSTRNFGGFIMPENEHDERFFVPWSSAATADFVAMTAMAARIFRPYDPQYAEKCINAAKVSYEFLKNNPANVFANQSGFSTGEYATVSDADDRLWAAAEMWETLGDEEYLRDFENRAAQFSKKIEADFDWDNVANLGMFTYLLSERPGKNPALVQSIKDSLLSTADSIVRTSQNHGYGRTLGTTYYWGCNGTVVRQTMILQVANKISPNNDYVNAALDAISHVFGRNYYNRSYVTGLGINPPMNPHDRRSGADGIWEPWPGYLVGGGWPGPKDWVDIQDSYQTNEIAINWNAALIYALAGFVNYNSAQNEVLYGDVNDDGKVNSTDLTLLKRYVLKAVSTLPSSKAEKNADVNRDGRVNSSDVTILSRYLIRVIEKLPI

Cel9T = molecular target: T6, Cel9T (Acetivibrio thermocellus, UniProt A3DJ82)
T6 construct: gene Cthe_2812; signal peptide removed, dockerin kept, His-tag, E. coli BL21
T6 sequence (A3DJ82 36-611): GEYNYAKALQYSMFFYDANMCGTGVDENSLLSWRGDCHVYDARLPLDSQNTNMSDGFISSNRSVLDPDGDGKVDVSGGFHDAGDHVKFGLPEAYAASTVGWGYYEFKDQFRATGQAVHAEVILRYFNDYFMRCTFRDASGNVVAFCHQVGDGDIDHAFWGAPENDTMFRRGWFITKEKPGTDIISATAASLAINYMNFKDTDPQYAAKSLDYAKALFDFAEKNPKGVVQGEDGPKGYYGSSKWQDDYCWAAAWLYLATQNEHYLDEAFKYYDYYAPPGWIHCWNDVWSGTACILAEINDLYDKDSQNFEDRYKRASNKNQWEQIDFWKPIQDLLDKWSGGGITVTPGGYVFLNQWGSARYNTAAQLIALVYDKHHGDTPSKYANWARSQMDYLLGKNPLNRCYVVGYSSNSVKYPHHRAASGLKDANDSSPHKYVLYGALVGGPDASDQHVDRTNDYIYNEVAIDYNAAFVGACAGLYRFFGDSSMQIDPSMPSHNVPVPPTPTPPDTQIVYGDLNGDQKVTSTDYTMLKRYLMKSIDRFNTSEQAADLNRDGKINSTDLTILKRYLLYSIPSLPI

T1 sequence (A3DD30 28-1601): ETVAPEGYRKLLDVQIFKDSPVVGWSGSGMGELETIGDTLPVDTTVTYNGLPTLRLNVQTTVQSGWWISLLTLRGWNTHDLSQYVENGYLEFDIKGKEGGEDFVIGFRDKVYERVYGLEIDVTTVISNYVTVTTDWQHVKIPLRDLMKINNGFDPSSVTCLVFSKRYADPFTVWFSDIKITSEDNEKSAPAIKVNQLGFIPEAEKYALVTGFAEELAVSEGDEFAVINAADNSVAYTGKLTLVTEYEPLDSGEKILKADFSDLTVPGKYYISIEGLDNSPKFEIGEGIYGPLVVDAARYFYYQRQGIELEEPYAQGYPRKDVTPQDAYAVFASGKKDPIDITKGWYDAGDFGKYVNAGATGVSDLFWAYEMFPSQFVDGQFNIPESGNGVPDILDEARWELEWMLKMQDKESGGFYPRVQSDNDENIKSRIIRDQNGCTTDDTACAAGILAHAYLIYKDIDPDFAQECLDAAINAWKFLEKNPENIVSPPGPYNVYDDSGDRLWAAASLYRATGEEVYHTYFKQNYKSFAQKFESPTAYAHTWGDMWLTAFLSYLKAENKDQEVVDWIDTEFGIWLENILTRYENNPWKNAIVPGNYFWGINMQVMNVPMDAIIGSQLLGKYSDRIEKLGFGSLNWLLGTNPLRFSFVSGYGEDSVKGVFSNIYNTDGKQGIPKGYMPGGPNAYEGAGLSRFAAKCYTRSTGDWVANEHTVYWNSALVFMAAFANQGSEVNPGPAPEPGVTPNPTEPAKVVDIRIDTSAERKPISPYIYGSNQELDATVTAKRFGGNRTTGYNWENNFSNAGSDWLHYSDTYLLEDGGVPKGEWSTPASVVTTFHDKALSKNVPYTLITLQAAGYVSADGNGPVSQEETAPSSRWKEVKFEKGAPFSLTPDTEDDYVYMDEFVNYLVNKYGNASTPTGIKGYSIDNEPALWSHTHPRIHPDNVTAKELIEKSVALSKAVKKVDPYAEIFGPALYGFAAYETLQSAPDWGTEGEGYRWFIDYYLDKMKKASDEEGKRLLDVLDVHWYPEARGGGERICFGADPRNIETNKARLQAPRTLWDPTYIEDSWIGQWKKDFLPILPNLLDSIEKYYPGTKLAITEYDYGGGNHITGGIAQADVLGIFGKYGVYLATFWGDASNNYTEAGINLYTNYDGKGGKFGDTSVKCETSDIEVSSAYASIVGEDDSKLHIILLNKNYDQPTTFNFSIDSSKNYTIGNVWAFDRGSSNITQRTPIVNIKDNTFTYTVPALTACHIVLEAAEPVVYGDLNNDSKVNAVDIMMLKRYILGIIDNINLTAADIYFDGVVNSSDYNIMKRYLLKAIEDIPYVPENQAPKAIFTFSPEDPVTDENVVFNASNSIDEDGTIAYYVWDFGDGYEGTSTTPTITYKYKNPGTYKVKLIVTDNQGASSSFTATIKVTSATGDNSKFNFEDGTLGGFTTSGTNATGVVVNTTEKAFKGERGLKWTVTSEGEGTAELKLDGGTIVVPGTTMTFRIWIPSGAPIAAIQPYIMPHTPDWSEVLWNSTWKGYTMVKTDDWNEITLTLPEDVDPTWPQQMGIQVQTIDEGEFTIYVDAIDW

OC[C@H]1O[C@@H](O[C@H]2[C@H](O)[C@@H](O)[C@H](O[C@H]3[C@H](O)[C@@H](O)[C@H](O[C@H]4[C@H](O)[C@@H](O)[C@H](O[C@H]5[C@H](O)[C@@H](O)[C@H](O[C@H]6[C@H](O)[C@@H](O)C(O)O[C@@H]6CO)O[C@@H]5CO)O[C@@H]4CO)O[C@@H]3CO)O[C@@H]2CO)[C@H](O)[C@@H](O)[C@@H]1O (stereo partly drawn) [cellohexaose]
TLC product analysis (Cel9-44J): characterized by their indiscriminate scission of cello-oligosaccharides | TLC product analysis (Cel5-26H): characterized by their indiscriminate scission of cello-oligosaccharides | TLC product analysis (Cbh9A): released specifically cellobiose as the only product over time (Cel48S, Cel9K, and Cbh9A) | TLC product analysis (Cel9K): released specifically cellobiose as the only product over time (Cel48S, Cel9K, and Cbh9A) | TLC product analysis (Cel9D): confirmed by the hydrolysis products from cello-oligosaccharides as substrate | TLC product analysis (Cel9T): characterized by their indiscriminate scission of cello-oligosaccharides
